Converted amounts (≈) assume the structure as drawn.
What was measured:
Assay in all cases: ≥ marks a high value that may be exact or a test limit, other limits are often not marked, values filed in µg/mL are converted to µM
Klebsiella pneumoniae = test system: Klebsiella pneumoniae
Micrococcus luteus = test system: Micrococcus luteus
Pseudomonas aeruginosa = test system: Pseudomonas aeruginosa
Proteus mirabilis = test system: Proteus mirabilis
Bacillus subtilis = test system: Bacillus subtilis
Salmonella typhimurium = test system: Salmonella typhimurium
Escherichia coli = test system: Escherichia coli
[1] = test system: Staphylococcus epidermidis
Staphylococcus aureus = test system: Staphylococcus aureus
Shigella dysenteriae = test system: Shigella dysenteriae
Candida albicans = test system: Candida albicans
Serratia marcescens = test system: Serratia marcescens
Saccharomyces cerevisiae = test system: Saccharomyces cerevisiae
Escherichia coli HB101 = test system: Escherichia coli HB101
[2] = test system: Clavibacter michiganensis subsp. michiganensis DSM 46294
[3] = test system: Pectobacterium carotovorum subsp. carotovorum DSM 30168
[4] = test system: Pseudomonas syringae pv. tomato DC3000
[5] = test system: Pseudomonas syringae pv. syringae DSM 10604
[6] = test system: Xanthomonas vesicatoria DSM 50861
[7] = test system: Pseudomonas corrugata DSM 7228
[8] = test system: Salmonella enterica subsp. enterica serovar Typhimurium C77-31
[9] = test system: Staphylococcus epidermidis ATCC 12228
[10] = test system: Enterococcus faecalis ATCC 29212
[11] = test system: Staphylococcus aureus ATCC 29213
[12] = test system: Escherichia coli ATCC 25922
[13] = test system: Salmonella enterica subsp. enterica serovar Pullorum C79-13

Compound | MIC (Klebsiella pneumoniae) [µM] | MIC (Micrococcus luteus) [µM] | MIC (Pseudomonas aeruginosa) [µM] | MIC (Proteus mirabilis) [µM] | MIC (Bacillus subtilis) [µM] | MIC (Salmonella typhimurium) [µM] | MIC (Escherichia coli) [µM] | MIC [1] [µM] | MIC (Staphylococcus aureus) [µM] | MIC (Shigella dysenteriae) [µM] | MIC [2] [µM] | MIC [3] [µM] | MIC [4] [µM] | MIC [5] [µM] | MIC [6] [µM] | MIC [7] [µM] | also measured
CC(C)C[C@H](NC(=O)CNC(=O)[C@H](CC(C)C)NC(=O)[C@@H](N)Cc1ccccc1)C(=O)N[C@@H](CC(C)C)C(=O)N[C@@H](Cc1ccccc1)C(=O)N[C@@H](CCCCN)C(=O)N[C@H](C(=O)N[C@@H](C)C(=O)N[C@@H](CO)C(=O)N[C@@H](CCCCN)C(=O)O)C(C)C [FLGLLFKVASK] | 81.8 (≈ 100 µg/mL) | 10.2 (≈ 12.5 µg/mL) | > 164 | ≥ 164 | ≥ 40.9 | ≥ 164 | 164 (≈ 200 µg/mL) | ≥ 40.9 | 20.4 (≈ 25 µg/mL) | ≥ 164 |  |  |  |  |  |  | 
CC(C)C[C@H](NC(=O)[C@@H](NC(=O)[C@H](CCCCN)NC(=O)[C@H](CO)NC(=O)[C@H](C)NC(=O)[C@@H](NC(=O)[C@H](CCCCN)NC(=O)[C@H](Cc1ccccc1)NC(=O)[C@H](CC(C)C)NC(=O)[C@H](C)NC(=O)[C@H](CCCCN)NC(=O)[C@H](CC(C)C)NC(=O)[C@@H](N)Cc1ccccc1)C(C)C)C(C)C)C(=O)O [FLKALFKVASKVL] | 2.12 (≈ 3.1 µg/mL) | 2.12 (≈ 3.1 µg/mL) | 17.1 (≈ 25 µg/mL) | ≥ 137 | 8.54 (≈ 12.5 µg/mL) | 8.54 (≈ 12.5 µg/mL) | 4.3 (≈ 6.3 µg/mL) | 2.12 (≈ 3.1 µg/mL) | 2.12 (≈ 3.1 µg/mL) | 4.3 (≈ 6.3 µg/mL) |  |  |  |  |  |  | 
CC[C@H](C)[C@H](NC(=O)CN)C(=O)N[C@@H](CC(C)C)C(=O)N[C@@H](CC(=O)O)C(=O)N[C@H](C(=O)N[C@@H](CC(C)C)C(=O)N[C@@H](CCCCN)C(=O)N[C@@H](CCC(N)=O)C(=O)N[C@@H](Cc1ccccc1)C(=O)N[C@@H](C)C(=O)N[C@@H](CCCCN)C(=O)NCC(=O)N[C@H](C(=O)NCC(=O)N[C@@H](CCCCN)C(=O)N[C@@H](CC(=O)O)C(=O)N[C@@H](CC(C)C)C(=O)N[C@H](C(=O)N[C@@H](CCCCN)C(=O)NCC(=O)N[C@@H](C)C(=O)N[C@@H](C)C(=O)N[C@@H](CCC(N)=O)C(=O)NCC(=O)N[C@H](C(=O)N[C@@H](CC(C)C)C(=O)N[C@@H](CO)C(=O)N[C@H](C(=O)O)[C@@H](C)O)C(C)C)C(C)C)C(C)C)[C@@H](C)O [GILDTLKQFAKGVGKDLVKGAAQGVLST] |  | 0.888 (≈ 2.5 µg/mL) | 17.8 (≈ 50 µg/mL) | ≥ 35.5 | 17.8 (≈ 50 µg/mL) | 26.6 (≈ 75 µg/mL) | 8.88 (≈ 25 µg/mL) | 17.8 (≈ 50 µg/mL) |  | 8.88 (≈ 25 µg/mL) |  |  |  |  |  |  | MIC (Candida albicans): > 35.5 µM; MIC (Serratia marcescens): ≥ 35.5 µM; MIC (Saccharomyces cerevisiae): 8.88 µM (≈ 25 µg/mL)
CC[C@H](C)[C@H](NC(=O)[C@@H](NC(=O)[C@@H]1CCCN1C(=O)[C@@H](NC(=O)[C@@H]1CCCN1C(=O)[C@H](CCCCN)NC(=O)[C@H](CCCCN)NC(=O)[C@H](CO)NC(=O)CN)C(C)C)[C@@H](C)CC)C(=O)N[C@@H](Cc1ccc(O)cc1)C(=O)N[C@H]1CSSC[C@@H](C(=O)N[C@@H](CCC(N)=O)C(=O)N[C@@H](CCCN=C(N)N)C(=O)N[C@@H](CCSC)C(=O)O)NC(=O)[C@H](CCCCN)NC(=O)[C@H](CCCN=C(N)N)NC(=O)[C@H](CCCN=C(N)N)NC(=O)[C@H](CC(N)=O)NC1=O [GSKKPVPIIYCNRRKCQRM] |  |  | 10.4 (≈ 23.7 µg/mL) |  | 5.2 (≈ 11.8 µg/mL) | 1.3 (≈ 2.96 µg/mL) |  |  | 10.4 (≈ 23.7 µg/mL) |  |  |  |  |  |  |  | MIC (Escherichia coli HB101): 2.6 µM (≈ 5.92 µg/mL)
CC(C)C[C@H](NC(=O)[C@@H](NC(=O)[C@@H](NC(=O)[C@@H](N)CC(C)C)C(C)C)[C@@H](C)O)C(=O)N[C@H](C(=O)N[C@@H](Cc1ccccc1)C(=O)N[C@H](C(=O)NCC(=O)NCC(=O)NCC(=O)N[C@@H](Cc1c[nH]c2ccccc12)C(=O)N[C@@H](CCCCN)C(=O)N[C@@H](Cc1c[nH]c2ccccc12)C(=O)N[C@@H](CCCCN)C(=O)N[C@@H](Cc1c[nH]c2ccccc12)C(=O)N[C@@H](CCC(=O)O)C(=O)N[C@@H](CC(N)=O)C(=O)NCC(=O)N[C@@H](CCCCN)C(=O)N[C@@H](Cc1c[nH]c2ccccc12)C(=O)N[C@@H](CCCCN)C(=O)N[C@@H](Cc1c[nH]c2ccccc12)C(=O)N[C@@H](CCC(N)=O)C(=O)N[C@@H](Cc1c[nH]c2ccccc12)C(=O)O)C(C)C)C(C)C [LVTLVFVGGGWKWKWENGKWKWQW] |  |  |  |  |  |  |  |  |  |  |  |  |  |  |  |  | MIC [8]: ≥ 128 µM; MIC [9]: > 128 µM; MIC [10]: > 128 µM; MIC [11]: > 128 µM; MIC [12]: > 128 µM; MIC [13]: ≥ 128 µM
CC(C)C[C@H](NC(=O)[C@H](CC(C)C)NC(=O)[C@H](CCCN=C(N)N)NC(=O)[C@H](CCCCN)NC(=O)[C@H](CC(C)C)NC(=O)[C@H](CC(C)C)NC(=O)[C@H](CCCCN)NC(=O)[C@H](CCCCN)NC(=O)[C@H](CCCN=C(N)N)NC(=O)[C@H](CCCCN)NC(=O)[C@H](CCCCN)NC(=O)[C@@H](N)CCCN=C(N)N)C(N)=O [RKKRKKLLKRLL] |  |  |  |  |  |  |  |  |  |  | 3.16 (≈ 5 µg/mL) | 6.33 (≈ 9.99 µg/mL) | 0.633 (≈ 0.999 µg/mL) | 0.0633 (≈ 0.1 µg/mL) | 3.16 (≈ 5 µg/mL) | 0.158 (≈ 0.25 µg/mL) | 
CC[C@H](C)[C@H](NC(=O)[C@H](CCCN=C(N)N)NC(=O)[C@@H](N)CCCN=C(N)N)C(=O)N[C@@H](CCCN=C(N)N)C(=O)N1CCC[C@H]1C(=O)N[C@@H](CCCN=C(N)N)C(=O)N1CCC[C@H]1C(=O)N[C@@H](CCCN=C(N)N)C(=O)N[C@@H](CS)C(=O)O [RRIRPRPRC] |  |  |  |  |  |  |  |  |  |  |  |  |  |  |  |  | MIC [12]: > 128 µM; MIC (Escherichia coli HB101): ≥ 128 µM

Continued, in another order:

MIC (Klebsiella pneumoniae) [µM] | MIC (Micrococcus luteus) [µM] | MIC (Pseudomonas aeruginosa) [µM] | MIC (Proteus mirabilis) [µM] | MIC (Bacillus subtilis) [µM] | MIC (Salmonella typhimurium) [µM] | MIC (Escherichia coli) [µM] | MIC [1] [µM] | MIC (Staphylococcus aureus) [µM] | MIC (Shigella dysenteriae) [µM] | MIC [2] [µM] | MIC [3] [µM] | MIC [4] [µM] | MIC [5] [µM] | MIC [6] [µM] | MIC [7] [µM] | Compound | also measured
> 169 | ≥ 169 | > 169 | ≥ 169 | ≥ 169 | ≥ 169 | > 169 | ≥ 169 | > 169 | ≥ 169 |  |  |  |  |  |  | CC(C)C[C@H](NC(=O)[C@H](C)NC(=O)CNC(=O)[C@H](CC(C)C)NC(=O)[C@@H](N)Cc1ccccc1)C(=O)N[C@@H](Cc1ccccc1)C(=O)N[C@@H](CCCCN)C(=O)N[C@H](C(=O)N[C@@H](C)C(=O)N[C@@H](CO)C(=O)N[C@@H](CCCCN)C(=O)O)C(C)C [FLGALFKVASK] | 
 |  |  |  |  |  |  |  |  |  | 0.989 (≈ 2.5 µg/mL) | 3.96 (≈ 10 µg/mL) | 0.989 (≈ 2.5 µg/mL) | 3.96 (≈ 10 µg/mL) | 0.396 (≈ 1 µg/mL) | 3.96 (≈ 10 µg/mL) | CC[C@H](C)[C@H](NC(=O)[C@H](CC(C)C)NC(=O)[C@H](CCCCN)NC(=O)[C@@H](NC(=O)[C@@H](NC(=O)[C@H](CC(C)C)NC(=O)[C@H](CCCCN)NC(=O)[C@H](CC(C)C)NC(=O)[C@@H](NC(=O)[C@H](CCCN=C(N)N)NC(=O)[C@@H](NC(=O)[C@H](CC(C)C)NC(=O)[C@@H](NC(=O)[C@H](CCCN=C(N)N)NC(=O)[C@H](CCCN=C(N)N)NC(=O)[C@@H](N)CCCCN)[C@@H](C)CC)[C@@H](C)CC)[C@@H](C)CC)[C@@H](C)CC)[C@@H](C)CC)C(=O)N[C@@H](CC(C)C)C(=O)N[C@@H](CCCCN)C(=O)N[C@@H](CCCCN)C(=O)N[C@@H](CCCN=C(N)N)C(N)=O [KRRILIRILKLIIKLILKKR] | 
 |  |  |  |  |  |  |  |  |  | 0.635 (≈ 0.999 µg/mL) | 1.59 (≈ 2.5 µg/mL) | 0.159 (≈ 0.25 µg/mL) | 0.159 (≈ 0.25 µg/mL) | 0.635 (≈ 0.999 µg/mL) | 0.318 (≈ 0.5 µg/mL) | CC(C)C[C@H](NC(=O)[C@H](C)NC(=O)[C@H](CCCN=C(N)N)NC(=O)[C@H](CCCN=C(N)N)NC(=O)[C@H](C)NC(=O)[C@H](Cc1ccccc1)NC(=O)[C@H](CCCN=C(N)N)NC(=O)[C@@H](N)CC(C)C)C(=O)N[C@@H](CCCN=C(N)N)C(=O)N[C@@H](CCCN=C(N)N)C(=O)N[C@@H](CC(C)C)C(=O)N[C@@H](Cc1ccccc1)C(N)=O [LRFARRALRRLF] | 
